Legend:
Format in all cases: functional
[1] = Growth inhibition of human SNB75 cells at 10 uM after 48 hrs by sulforhodamine B assay; conditions: SNB-75, 48 h, values are per cent of control
U-251 = assay: Growth inhibition of human U251 cells at 10 uM after 48 hrs by sulforhodamine B assay; conditions: U-251, 48 h, values are per cent of control
[2] = Growth inhibition of human LOXIMVI cells at 10 uM after 48 hrs by sulforhodamine B assay; conditions: LOX IMVI, values are per cent of control
M14 = assay: Growth inhibition of human M14 cells at 10 uM after 48 hrs by sulforhodamine B assay; conditions: M14, 48 h, values are per cent of control
MDA-MB-435 = assay: Growth inhibition of human MDA-MB-435 cells at 10 uM after 48 hrs by sulforhodamine B assay; conditions: MDA-MB-435, 48 h, values are per cent of control
SK-MEL-2 = assay: Growth inhibition of human SK-MEL-2 cells at 10 uM after 48 hrs by sulforhodamine B assay; conditions: SK-MEL-2, 48 h, values are per cent of control
SK-MEL-28 = assay: Growth inhibition of human SK-MEL-28 cells at 10 uM after 48 hrs by sulforhodamine B assay; conditions: SK-MEL-28, 48 h, values are per cent of control
[3] = Growth inhibition of human UACC62 cells at 10 uM after 48 hrs by sulforhodamine B assay; conditions: UACC-62, 48 h, values are per cent of control
[4] = Growth inhibition of human IGROV1 cells at 10 uM after 48 hrs by sulforhodamine B assay; conditions: IGROV-1, 48 h, values are per cent of control
[5] = Growth inhibition of human OVCAR4 cells at 10 uM after 48 hrs by sulforhodamine B assay; conditions: OVCAR-4, 48 h, values are per cent of control
[6] = Growth inhibition of human OVCAR5 cells at 10 uM after 48 hrs by sulforhodamine B assay; conditions: OVCAR-5, 48 h, values are per cent of control
A498 = assay: Growth inhibition of human A498 cells at 10 uM after 48 hrs by sulforhodamine B assay; conditions: A498, 48 h, values are per cent of control
[7] = Growth inhibition of human Caki1 cells at 10 uM after 48 hrs by sulforhodamine B assay; conditions: CAKI-1, 48 h, values are per cent of control
SN12C = assay: Growth inhibition of human SN12C cells at 10 uM after 48 hrs by sulforhodamine B assay; conditions: values are per cent of control
[8] = Growth inhibition of human TK10 cells at 10 uM after 48 hrs by sulforhodamine B assay; conditions: TK-10, 48 h, values are per cent of control
[9] = Growth inhibition of human UO31 cells at 10 uM after 48 hrs by sulforhodamine B assay; conditions: UO-31, 48 h, values are per cent of control
[10] = Growth inhibition of human DU145 cells at 10 uM after 48 hrs by sulforhodamine B assay; conditions: DU-145, 48 h, values are per cent of control
MDA-MB-231 = assay: Growth inhibition of human MDA-MB-231 cells at 10 uM after 48 hrs by sulforhodamine B assay; conditions: MDA-MB-231, 48 h, values are per cent of control
[11] = Growth inhibition of human Hs 578T cells at 10 uM after 48 hrs by sulforhodamine B assay; conditions: values are per cent of control
[12] = Growth inhibition of human BT549 cells at 10 uM after 48 hrs by sulforhodamine B assay; conditions: BT-549, 48 h, values are per cent of control
T47D = assay: Growth inhibition of human T47D cells at 10 uM after 48 hrs by sulforhodamine B assay; conditions: values are per cent of control
MDA-MB-468 = assay: Growth inhibition of human MDA-MB-468 cells at 10 uM after 48 hrs by sulforhodamine B assay; conditions: MDA-MB-468, 48 h, values are per cent of control
K562 = assay: Growth inhibition of human K562 cells at 10 uM after 48 hrs by sulforhodamine B assay; conditions: K562, 48 h, values are per cent of control
A549 = assay: Growth inhibition of human A549/ATCC cells at 10 uM after 48 hrs by sulforhodamine B assay; conditions: A549, 48 h, values are per cent of control
[13] = Growth inhibition of human HOP62 cells at 10 uM after 48 hrs by sulforhodamine B assay; conditions: HOP-62, 48 h, values are per cent of control
NCI-H226 = assay: Growth inhibition of human NCI-H226 cells at 10 uM after 48 hrs by sulforhodamine B assay; conditions: NCI-H226, 48 h, values are per cent of control
NCI-H23 = assay: Growth inhibition of human NCI-H23 cells at 10 uM after 48 hrs by sulforhodamine B assay; conditions: NCI-H23, 48 h, values are per cent of control
NCI-H322M = assay: Growth inhibition of human NCI-H322M cells at 10 uM after 48 hrs by sulforhodamine B assay; conditions: values are per cent of control
NCI-H460 = assay: Growth inhibition of human NCI-H460 cells at 10 uM after 48 hrs by sulforhodamine B assay; conditions: NCI-H460, 48 h, values are per cent of control
NCI-H522 = assay: Growth inhibition of human NCI-H522 cells at 10 uM after 48 hrs by sulforhodamine B assay; conditions: NCI-H522, 48 h, values are per cent of control
[14] = Growth inhibition of human COLO205 cells at 10 uM after 48 hrs by sulforhodamine B assay; conditions: COLO 205, 48 h, values are per cent of control
[15] = Growth inhibition of human HCC2998 cells at 10 uM after 48 hrs by sulforhodamine B assay; conditions: HCC 2998, 48 h, values are per cent of control
[16] = Growth inhibition of human HCT116 cells at 10 uM after 48 hrs by sulforhodamine B assay; conditions: HCT-116, 48 h, values are per cent of control
HT-29 = assay: Growth inhibition of human HT-29 cells at 10 uM after 48 hrs by sulforhodamine B assay; conditions: HT-29, 48 h, values are per cent of control
KM12 = assay: Growth inhibition of human KM12 cells at 10 uM after 48 hrs by sulforhodamine B assay; conditions: KM12, 48 h, values are per cent of control
[17] = Growth inhibition of human SW620 cells at 10 uM after 48 hrs by sulforhodamine B assay; conditions: SW-620, 48 h, values are per cent of control
[18] = Growth inhibition of human SF268 cells at 10 uM after 48 hrs by sulforhodamine B assay; conditions: SF-268, 48 h, values are per cent of control
[19] = Growth inhibition of human SF295 cells at 10 uM after 48 hrs by sulforhodamine B assay; conditions: SF-295, 48 h, values are per cent of control
[20] = Growth inhibition of human SF539 cells at 10 uM after 48 hrs by sulforhodamine B assay; conditions: SF-539, 48 h, values are per cent of control
[21] = Growth inhibition of human SNB19 cells at 10 uM after 48 hrs by sulforhodamine B assay; conditions: SNB-19, 48 h, values are per cent of control

SMILES | growth, % of control at 10 µM [1] [%] | growth, % of control at 10 µM (U-251) [%] | growth, % of control at 10 µM [2] [%] | growth, % of control at 10 µM (M14) [%] | growth, % of control at 10 µM (MDA-MB-435) [%] | growth, % of control at 10 µM (SK-MEL-2) [%] | growth, % of control at 10 µM (SK-MEL-28) [%] | growth, % of control at 10 µM [3] [%] | growth, % of control at 10 µM [4] [%] | growth, % of control at 10 µM [5] [%] | growth, % of control at 10 µM [6] [%] | growth, % of control at 10 µM (A498) [%] | growth, % of control at 10 µM [7] [%] | growth, % of control at 10 µM (SN12C) [%] | growth, % of control at 10 µM [8] [%] | growth, % of control at 10 µM [9] [%] | growth, % of control at 10 µM [10] [%] | growth, % of control at 10 µM (MDA-MB-231) [%] | growth, % of control at 10 µM [11] [%] | growth, % of control at 10 µM [12] [%] | further results
N#C/C(=C\c1ccsc1)c1ccc2c(c1)OCO2 | 67.7 | 93.7 | 112 | 105 | 107 | 106 | 113 | 106 | 96.4 | 91 | 115 | 103 | 97.3 | 104 | 104 | 84.6 | 98.5 | 103 | 119 | 96.5 | growth, % of control at 10 µM (T47D): 90.7%; growth, % of control at 10 µM (MDA-MB-468): 105%; growth, % of control at 10 µM (K562): 105%; growth, % of control at 10 µM (A549): 92.1%; growth, % of control at 10 µM [13]: 94.5%; growth, % of control at 10 µM (NCI-H226): 101%; growth, % of control at 10 µM (NCI-H23): 106%; growth, % of control at 10 µM (NCI-H322M): 90.6%; growth, % of control at 10 µM (NCI-H460): 104%; growth, % of control at 10 µM (NCI-H522): 95.4%; growth, % of control at 10 µM [14]: 101%; growth, % of control at 10 µM [15]: 106%; growth, % of control at 10 µM [16]: 102%; growth, % of control at 10 µM (HT-29): 102%; growth, % of control at 10 µM (KM12): 94.6%; growth, % of control at 10 µM [17]: 109%; growth, % of control at 10 µM [18]: 102%; growth, % of control at 10 µM [19]: 101%; growth, % of control at 10 µM [20]: 105%; growth, % of control at 10 µM [21]: 101%
COc1ccc(/C(C#N)=C/c2ccc3c(c2)OCO3)cc1 | 80.8 | 80.9 | 102 | 10.4 | 77.9 | 90.1 | 81.4 | 69.2 | 84.6 | 76.4 | 93.9 | 63.3 | 78.2 | 84.3 | 85.7 | 72.8 | 95 | 68.7 | 92.4 | 74.7 | growth, % of control at 10 µM (T47D): 70%; growth, % of control at 10 µM (MDA-MB-468): 48.6%; growth, % of control at 10 µM (K562): 37.9%; growth, % of control at 10 µM (A549): 71.2%; growth, % of control at 10 µM [13]: 86.6%; growth, % of control at 10 µM (NCI-H226): 86.6%; growth, % of control at 10 µM (NCI-H23): 96.1%; growth, % of control at 10 µM (NCI-H322M): 94.7%; growth, % of control at 10 µM (NCI-H460): 64.3%; growth, % of control at 10 µM (NCI-H522): 90.5%; growth, % of control at 10 µM [14]: 76.2%; growth, % of control at 10 µM [15]: 80%; growth, % of control at 10 µM [16]: 64.9%; growth, % of control at 10 µM (HT-29): 64.5%; growth, % of control at 10 µM (KM12): 63.6%; growth, % of control at 10 µM [17]: 84.9%; growth, % of control at 10 µM [18]: 92%; growth, % of control at 10 µM [19]: 80.8%; growth, % of control at 10 µM [20]: 83.7%; growth, % of control at 10 µM [21]: 49.4%
